Test results taken from ChEMBL document CHEMBL5543158, “Design of Evodiamine-Glucose Conjugates with Improved In Vivo Antitumor Activity” (J Med Chem, 2024).
Values after ≈ are worked out from the molar mass of the structure shown.

How the values were obtained:
[1] = Solubility of the compound in double distilled water measured upto 30 mins by UV-vis spectrophotometry; type: physicochemical
[2] = tested on: HCT-116; assay: Antiproliferative activity against human HCT116 cells measured after 72 hrs by CCK-8 cells; type: functional, cell-based; conditions: HCT-116, 72 h
[3] = tested on: A549; assay: Antiproliferative activity against human A549 cells measured after 72 hrs by CCK-8 cells; type: functional, cell-based; conditions: A549, 72 h
[4] = tested on: U-87 MG; assay: Antiproliferative activity against human U-87 MG cells measured after 72 hrs by CCK-8 cells; type: functional, cell-based, U-87MG ATCC

Row | solubility at 0.5 h [1] | IC50 [2] | IC50 [3] | IC50 [4] | SMILES
1 | 2020 µg/mL (≈ 3.16 mM) |  |  |  | CN1c2ccc(F)cc2C(=O)N2CCc3c([nH]c4ccc(OCc5cn(CCCO[C@@H]6O[C@H](CO)[C@@H](O)[C@H](O)[C@H]6O)nn5)cc34)[C@H]21
2 | 2470 µg/mL (≈ 3.68 mM) | 54 nM | 54 nM | 54 nM | CN1c2ccc(F)cc2C(=O)N2CCc3c([nH]c4ccc(OC(=O)CCCC(=O)NCCCO[C@@H]5O[C@H](CO)[C@@H](O)[C@H](O)[C@H]5O)cc34)[C@H]21
3 | 1990 µg/mL (≈ 3.03 mM) | 49 nM | 49 nM | 49 nM | CN1c2ccc(F)cc2C(=O)N2CCc3c([nH]c4ccc(OC(=O)CCC(=O)NCCCO[C@@H]5O[C@H](CO)[C@@H](O)[C@H](O)[C@H]5O)cc34)[C@H]21
